Test results published in ChEMBL document CHEMBL4390652, “Design, biological evaluation and X-ray crystallography of nanomolar multifunctional ligands targeting simultaneously acetylcholinesterase and glycogen synthase kinase-3” (Eur J Med Chem, 2019).

Legend:
[1] = target: Serine/threonine-protein kinase WNK2 (Homo sapiens) (UniProt Q9Y3S1); experiment: Binding affinity to wild-type human partial length WNK2 (V47 to D482 residues) expressed in mammalian expression system assessed as residual binding level at 10 uM by Kinomescan method relative to control
[2] = target: Fibroblast growth factor receptor 3 (Homo sapiens) (UniProt P22607); experiment: Binding affinity to wild-type human partial length FGFR3 (R442 to S771 residues) expressed in bacterial expression system assessed as residual binding level at 10 uM by Kinomescan method relative to control
[3] = target: Ribosomal protein S6 kinase alpha-4 (Homo sapiens) (UniProt O75676); experiment: Binding affinity to wild-type human partial length C-terminal RPS6KA4 kinase domain 2 (M375 to T705 residues) expressed in mammalian expression system assessed as residual binding level at 10 uM by Kinomescan method relative to control
[4] = target: Cyclin-dependent kinase 7 (Homo sapiens) (UniProt P50613); experiment: Binding affinity to wild-type human full length CDK7 (M1 to L344 residues) expressed in mammalian expression system assessed as residual binding level at 10 uM by Kinomescan method relative to control
[5] = target: Serine/threonine-protein kinase PLK3 (Homo sapiens) (UniProt Q9H4B4); experiment: Binding affinity to wild-type human partial length PLK3 (A42 to L334 residues) expressed in mammalian expression system assessed as residual binding level at 10 uM by Kinomescan method relative to control
[6] = target: Tyrosine-protein kinase ABL1 (Homo sapiens) (UniProt P00519); experiment: Binding affinity to wild-type human phosphorylated ABL1 (S229 to K512 residues) expressed in mammalian expression system assessed as residual binding level at 10 uM by Kinomescan method relative to control
[7] = target: Serine/threonine-protein kinase ICK (Homo sapiens) (UniProt Q9UPZ9); experiment: Binding affinity to wild-type human partial length ICK (M1 to P314 residues) expressed in mammalian expression system assessed as residual binding level at 10 uM by Kinomescan method relative to control
[8] = target: Glycogen synthase kinase-3 (Sus scrofa, UniProt B2LUN4+I6LNT8)
Description: Inhibition of native porcine brain GSK-3alpha/beta using GS-1 as substrate incubated for 30 mins in presence of [gamma-33P]ATP by liquid scintillation counting assay

[9] = target: Proto-oncogene tyrosine-protein kinase Src (Homo sapiens) (UniProt P12931); experiment: Binding affinity to wild-type human partial length SRC (L240 to L536 residues) expressed in bacterial expression system assessed as residual binding level at 10 uM by Kinomescan method relative to control
[10] = target: Testis-specific serine/threonine-protein kinase 3 (Homo sapiens) (UniProt Q96PN8); experiment: Binding affinity to wild-type human full length TSSK3 (M1 to T268 residues) expressed in mammalian expression system assessed as residual binding level at 10 uM by Kinomescan method relative to control
[11] = target: Calcium/calmodulin-dependent protein kinase type II subunit gamma (Homo sapiens) (UniProt Q13555); experiment: Binding affinity to wild-type human partial length CAMK2G (R9 to A303 residues) expressed in bacterial expression system assessed as residual binding level at 10 uM by Kinomescan method relative to control
[12] = tested on: SH-SY5Y; experiment: Cytotoxicity against human SH-SY5Y cells assessed as reduction in cell viability incubated for 72 hrs by MTT assay; assay type: cell-based
[13] = target: Serine/threonine-protein kinase 38 (Homo sapiens) (UniProt Q15208); experiment: Binding affinity to wild-type human partial length NDR1 (N33 to E449 residues) expressed in mammalian expression system assessed as residual binding level at 10 uM by Kinomescan method relative to control
[14] = target: Dual specificity protein kinase TTK (Homo sapiens) (UniProt P33981); experiment: Binding affinity to wild-type human partial length TTK (N505 to V798 residues) expressed in bacterial expression system assessed as residual binding level at 10 uM by Kinomescan method relative to control
[15] = target: Cyclin-dependent kinase 5 (Homo sapiens) (UniProt Q00535); experiment: Binding affinity to wild-type human full length CDK5 (M1 to P292 residues) expressed in bacterial expression system assessed as residual binding level at 10 uM by Kinomescan method relative to control
[16] = target: Serine/threonine-protein kinase Nek1 (Homo sapiens) (UniProt Q96PY6); experiment: Binding affinity to wild-type human partial length NEK1 (M1 to K278 residues) expressed in bacterial expression system assessed as residual binding level at 10 uM by Kinomescan method relative to control
[17] = target: Calcium/calmodulin-dependent protein kinase type 1 (Homo sapiens) (UniProt Q14012); experiment: Binding affinity to wild-type human full length CAMK1 (M1 to L370 residues) expressed in bacterial expression system assessed as residual binding level at 10 uM by Kinomescan method relative to control
[18] = target: Tyrosine-protein kinase Fyn (Homo sapiens) (UniProt P06241); experiment: Binding affinity to wild-type human partial length FYN (T243 to L534 residues) expressed in bacterial expression system assessed as residual binding level at 10 uM by Kinomescan method relative to control
[19] = target: SNF-related serine/threonine-protein kinase (Homo sapiens) (UniProt Q9NRH2); experiment: Binding affinity to wild-type human partial length SNRK (M1 to E339 residues) expressed in mammalian expression system assessed as residual binding level at 10 uM by Kinomescan method relative to control
[20] = target: Serine/threonine-protein kinase ULK1 (Homo sapiens) (UniProt O75385); experiment: Binding affinity to wild-type human partial length ULK1 (M1 to T309 residues) expressed in mammalian expression system assessed as residual binding level at 10 uM by Kinomescan method relative to control
[21] = target: Dual specificity tyrosine-phosphorylation-regulated kinase 1A (Homo sapiens) (UniProt Q13627); experiment: Binding affinity to wild-type human partial length DYRK1A (H129 to S509 residues) expressed in mammalian expression system assessed as residual binding level at 10 uM by Kinomescan method relative to control
[22] = target: Serine/threonine-protein kinase Nek3 (Homo sapiens) (UniProt P51956); experiment: Binding affinity to wild-type human full length NEK3 (M1 to R506 residues) expressed in mammalian expression system assessed as residual binding level at 10 uM by Kinomescan method relative to control
[23] = target: SRSF protein kinase 1 (Homo sapiens) (UniProt Q96SB4); experiment: Binding affinity to wild-type human full length SRPK1 (M1 to S655 residues) expressed in bacterial expression system assessed as residual binding level at 10 uM by Kinomescan method relative to control
[24] = target: Mitogen-activated protein kinase kinase kinase 2 (Homo sapiens) (UniProt Q9Y2U5); experiment: Binding affinity to wild-type human partial length MAP3K2 (S315 to H619 residues) expressed in mammalian expression system assessed as residual binding level at 10 uM by Kinomescan method relative to control
[25] = tested on: Mast/stem cell growth factor receptor Kit (Homo sapiens), P10721 [UNDEFINED MUTATION]; experiment: Binding affinity to human partial length KIT V559D/V654 double mutant (Y545 to D952 residues) expressed in bacterial expression system assessed as residual binding level at 10 uM by Kinomescan method relative to control

Sequence of Serine/threonine-protein kinase Nek1 (Homo sapiens) (Q96PY6 whole entry, the tested form may be a part): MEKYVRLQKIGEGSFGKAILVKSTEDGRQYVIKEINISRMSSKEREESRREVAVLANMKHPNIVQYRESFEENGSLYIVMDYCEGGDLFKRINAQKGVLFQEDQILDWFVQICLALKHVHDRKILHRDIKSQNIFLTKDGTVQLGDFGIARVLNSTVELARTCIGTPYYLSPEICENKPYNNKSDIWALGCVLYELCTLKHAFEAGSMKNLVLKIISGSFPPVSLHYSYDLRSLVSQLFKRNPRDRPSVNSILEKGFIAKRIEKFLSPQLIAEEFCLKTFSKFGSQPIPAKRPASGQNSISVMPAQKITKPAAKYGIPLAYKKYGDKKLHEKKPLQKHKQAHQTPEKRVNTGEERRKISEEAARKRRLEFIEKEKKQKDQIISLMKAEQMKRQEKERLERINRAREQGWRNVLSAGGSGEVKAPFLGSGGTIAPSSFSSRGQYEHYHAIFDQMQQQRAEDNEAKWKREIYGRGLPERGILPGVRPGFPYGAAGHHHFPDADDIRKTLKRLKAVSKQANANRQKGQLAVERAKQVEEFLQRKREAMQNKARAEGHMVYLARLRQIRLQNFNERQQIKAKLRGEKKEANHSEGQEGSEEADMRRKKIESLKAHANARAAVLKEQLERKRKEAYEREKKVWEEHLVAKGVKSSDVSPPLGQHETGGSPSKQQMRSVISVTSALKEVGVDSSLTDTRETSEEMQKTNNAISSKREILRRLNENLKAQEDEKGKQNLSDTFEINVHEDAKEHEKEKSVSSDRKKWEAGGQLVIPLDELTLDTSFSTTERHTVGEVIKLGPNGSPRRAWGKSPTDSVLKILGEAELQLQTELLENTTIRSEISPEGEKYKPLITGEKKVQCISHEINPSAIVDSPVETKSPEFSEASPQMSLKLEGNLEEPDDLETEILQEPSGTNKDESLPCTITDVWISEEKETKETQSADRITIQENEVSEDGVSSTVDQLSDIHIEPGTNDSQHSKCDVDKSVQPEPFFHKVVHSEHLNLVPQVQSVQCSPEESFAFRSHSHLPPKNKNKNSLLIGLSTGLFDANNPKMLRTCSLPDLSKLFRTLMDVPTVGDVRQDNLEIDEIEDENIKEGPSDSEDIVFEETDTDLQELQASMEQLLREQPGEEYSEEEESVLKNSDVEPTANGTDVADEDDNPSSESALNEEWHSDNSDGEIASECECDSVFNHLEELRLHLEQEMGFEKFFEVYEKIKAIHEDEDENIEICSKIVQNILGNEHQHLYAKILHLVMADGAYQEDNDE
Sequence of Tyrosine-protein kinase ABL1 (Homo sapiens) (P00519 whole entry, the tested form may be a part): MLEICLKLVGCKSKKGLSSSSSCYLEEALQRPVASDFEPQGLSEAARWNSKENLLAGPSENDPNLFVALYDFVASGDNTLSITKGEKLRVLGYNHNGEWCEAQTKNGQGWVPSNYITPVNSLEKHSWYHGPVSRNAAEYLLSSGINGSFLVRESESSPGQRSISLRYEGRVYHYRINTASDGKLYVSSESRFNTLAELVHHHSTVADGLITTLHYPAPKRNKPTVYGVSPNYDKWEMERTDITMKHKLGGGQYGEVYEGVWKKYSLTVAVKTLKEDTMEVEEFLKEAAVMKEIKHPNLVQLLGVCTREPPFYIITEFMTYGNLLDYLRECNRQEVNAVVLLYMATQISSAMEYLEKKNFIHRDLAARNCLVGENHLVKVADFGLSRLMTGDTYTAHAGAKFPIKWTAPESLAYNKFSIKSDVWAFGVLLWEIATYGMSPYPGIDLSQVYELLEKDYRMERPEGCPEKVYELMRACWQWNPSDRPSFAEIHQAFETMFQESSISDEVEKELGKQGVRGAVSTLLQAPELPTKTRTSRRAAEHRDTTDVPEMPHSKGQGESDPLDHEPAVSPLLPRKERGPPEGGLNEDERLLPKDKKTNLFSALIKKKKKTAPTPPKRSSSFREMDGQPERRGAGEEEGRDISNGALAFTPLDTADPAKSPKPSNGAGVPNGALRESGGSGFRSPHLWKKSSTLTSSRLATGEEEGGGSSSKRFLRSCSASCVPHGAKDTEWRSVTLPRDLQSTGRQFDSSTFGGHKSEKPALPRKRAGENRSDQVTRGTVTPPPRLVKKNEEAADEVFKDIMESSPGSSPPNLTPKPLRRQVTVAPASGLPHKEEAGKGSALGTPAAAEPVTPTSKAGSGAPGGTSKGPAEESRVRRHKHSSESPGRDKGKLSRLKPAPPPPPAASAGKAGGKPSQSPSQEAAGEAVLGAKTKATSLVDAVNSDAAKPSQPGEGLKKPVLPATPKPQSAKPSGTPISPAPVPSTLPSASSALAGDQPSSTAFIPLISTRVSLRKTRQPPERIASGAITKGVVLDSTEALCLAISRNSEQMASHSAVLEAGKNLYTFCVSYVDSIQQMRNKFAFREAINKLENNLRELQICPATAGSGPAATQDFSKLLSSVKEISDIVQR
Sequence of Serine/threonine-protein kinase ULK1 (Homo sapiens) (O75385 whole entry, the tested form may be a part): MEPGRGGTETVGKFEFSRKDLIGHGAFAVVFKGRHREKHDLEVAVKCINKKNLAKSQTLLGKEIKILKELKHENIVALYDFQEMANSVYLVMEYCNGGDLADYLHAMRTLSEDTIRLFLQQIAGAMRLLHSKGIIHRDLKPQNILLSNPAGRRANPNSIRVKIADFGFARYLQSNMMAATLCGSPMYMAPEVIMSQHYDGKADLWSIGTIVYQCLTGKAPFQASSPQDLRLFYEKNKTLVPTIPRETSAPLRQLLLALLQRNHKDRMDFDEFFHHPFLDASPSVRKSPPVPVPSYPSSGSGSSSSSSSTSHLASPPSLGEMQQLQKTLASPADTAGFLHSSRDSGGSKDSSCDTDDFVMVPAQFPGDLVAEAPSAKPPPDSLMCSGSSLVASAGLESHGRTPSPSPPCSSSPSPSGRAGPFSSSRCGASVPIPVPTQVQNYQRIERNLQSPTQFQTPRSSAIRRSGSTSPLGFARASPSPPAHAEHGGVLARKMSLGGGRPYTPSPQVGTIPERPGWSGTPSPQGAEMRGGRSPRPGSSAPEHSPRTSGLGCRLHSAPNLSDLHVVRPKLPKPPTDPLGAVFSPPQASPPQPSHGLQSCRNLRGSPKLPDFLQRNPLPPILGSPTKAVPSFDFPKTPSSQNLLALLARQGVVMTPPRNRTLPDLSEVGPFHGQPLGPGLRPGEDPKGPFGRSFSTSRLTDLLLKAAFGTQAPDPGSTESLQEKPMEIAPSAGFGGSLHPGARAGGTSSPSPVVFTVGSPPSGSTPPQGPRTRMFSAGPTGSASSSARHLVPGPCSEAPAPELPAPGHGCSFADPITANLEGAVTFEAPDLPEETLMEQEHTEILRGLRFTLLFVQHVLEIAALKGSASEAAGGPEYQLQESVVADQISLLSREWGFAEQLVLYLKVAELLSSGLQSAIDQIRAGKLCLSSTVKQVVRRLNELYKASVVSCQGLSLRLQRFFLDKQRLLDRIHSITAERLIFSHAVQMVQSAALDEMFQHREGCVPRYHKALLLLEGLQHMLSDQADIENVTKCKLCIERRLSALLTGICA
Sequence of Mitogen-activated protein kinase kinase kinase 2 (Homo sapiens) (Q9Y2U5 whole entry, the tested form may be a part): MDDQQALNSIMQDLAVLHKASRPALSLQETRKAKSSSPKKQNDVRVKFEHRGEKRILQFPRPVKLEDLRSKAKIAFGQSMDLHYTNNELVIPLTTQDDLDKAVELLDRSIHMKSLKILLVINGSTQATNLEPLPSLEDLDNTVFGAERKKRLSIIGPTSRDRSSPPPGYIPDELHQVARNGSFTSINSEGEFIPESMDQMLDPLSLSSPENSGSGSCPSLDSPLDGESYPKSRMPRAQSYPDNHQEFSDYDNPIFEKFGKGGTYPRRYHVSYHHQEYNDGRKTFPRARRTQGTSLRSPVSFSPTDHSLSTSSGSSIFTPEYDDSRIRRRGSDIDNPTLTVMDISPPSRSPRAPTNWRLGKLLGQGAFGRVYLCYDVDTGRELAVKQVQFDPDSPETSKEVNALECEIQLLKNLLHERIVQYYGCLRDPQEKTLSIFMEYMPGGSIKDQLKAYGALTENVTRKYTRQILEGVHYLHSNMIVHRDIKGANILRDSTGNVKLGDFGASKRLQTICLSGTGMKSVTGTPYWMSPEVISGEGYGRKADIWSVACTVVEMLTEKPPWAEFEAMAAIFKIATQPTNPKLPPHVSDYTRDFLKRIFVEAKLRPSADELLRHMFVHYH
Sequence of Calcium/calmodulin-dependent protein kinase type II subunit gamma (Homo sapiens) (Q13555 whole entry, the tested form may be a part): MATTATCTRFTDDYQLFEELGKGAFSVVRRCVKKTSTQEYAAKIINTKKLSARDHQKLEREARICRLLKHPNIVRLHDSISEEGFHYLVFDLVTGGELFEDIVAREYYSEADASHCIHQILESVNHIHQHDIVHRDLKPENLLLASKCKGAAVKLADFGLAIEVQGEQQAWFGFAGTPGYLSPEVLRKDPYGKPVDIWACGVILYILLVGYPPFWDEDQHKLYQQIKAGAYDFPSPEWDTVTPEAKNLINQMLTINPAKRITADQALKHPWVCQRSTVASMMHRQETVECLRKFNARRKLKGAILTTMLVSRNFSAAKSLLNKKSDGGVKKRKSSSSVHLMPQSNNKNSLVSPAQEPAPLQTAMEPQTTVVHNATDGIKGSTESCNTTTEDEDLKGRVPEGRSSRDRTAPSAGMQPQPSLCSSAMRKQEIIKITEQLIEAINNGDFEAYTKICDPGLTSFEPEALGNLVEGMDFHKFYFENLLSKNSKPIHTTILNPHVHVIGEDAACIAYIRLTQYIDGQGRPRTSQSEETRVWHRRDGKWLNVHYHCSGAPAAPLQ
Sequence of Serine/threonine-protein kinase 38 (Homo sapiens) (Q15208 2-465 limits assumed): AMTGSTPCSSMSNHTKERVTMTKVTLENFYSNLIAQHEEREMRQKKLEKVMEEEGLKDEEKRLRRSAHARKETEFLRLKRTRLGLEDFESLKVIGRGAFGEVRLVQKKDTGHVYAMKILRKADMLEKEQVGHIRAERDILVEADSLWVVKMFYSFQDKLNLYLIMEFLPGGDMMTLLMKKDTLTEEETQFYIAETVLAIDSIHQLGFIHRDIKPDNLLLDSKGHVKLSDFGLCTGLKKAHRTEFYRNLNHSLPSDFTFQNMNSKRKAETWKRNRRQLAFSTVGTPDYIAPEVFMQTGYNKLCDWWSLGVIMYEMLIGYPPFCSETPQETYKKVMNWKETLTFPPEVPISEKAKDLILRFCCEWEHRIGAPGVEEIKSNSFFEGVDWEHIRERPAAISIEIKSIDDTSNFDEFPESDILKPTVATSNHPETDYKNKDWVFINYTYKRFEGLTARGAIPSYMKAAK

## O=C(Nc1cc(-c2cn(CCNc3c4c(nc5ccccc35)CCCC4)nn2)ccn1)Nc1cccc2c1C1CCCCN1C2=O (racemic)
[1]
  Activity: 100%
[2]
  Activity: 54%
[3]
  Activity: 69%
[4]
  Activity: 2.3%
[5]
  Activity: 77%
[6]
  Activity: 0.6%
[7]
  Activity: 7.5%
[8]
  IC50: 0.016 µM
[9]
  Activity: 24%
[10]
  Activity: 100%
[11]
  Activity: 64%
[12]
  IC50: 13 µM
[13]
  Activity: 100%
[14]
  Activity: 9.9%
[15]
  Activity: 35%
[16]
  Activity: 80%
[17]
  Activity: 52%
[18]
  Activity: 74%
[19]
  Activity: 100%
[20]
  Activity: 38%
[21]
  Activity: 2.4%
[22]
  Activity: 69%
[23]
  Activity: 8.2%
[24]
  Activity: 9.1%
[25]
  Activity: 38%
